Data: ChEMBL document CHEMBL1201862, “PubChem BioAssay data set” (2004)
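Where inhibition never reached the appropriate level, the endpoint shown equals the highest concentration tested. Otherwise, values were interpolated linearly from a five-concentration, 48-hour dose response in 96-well plates. The concentration for 50% growth inhibition is given as GI50.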 Active and inactive are the calls of the source. Cut-off read from the data, not from the text of the source: active = GI50 up to about 1.1 µM and inactive = higher.

Experiments:
Experiment in all cases: NCI anticancer screen, dose series, 48 h
786-0 = test system: 786-0
ACHN = test system: ACHN
CCRF-CEM = test system: CCRF-CEM
HL-60 = test system: HL-60
HT-29 = test system: HT-29
KM12 = test system: KM12
Malme-3M = test system: Malme-3M
NCI-H522 = test system: NCI-H522
OVCAR-3 = test system: OVCAR-3
OVCAR-4 = test system: OVCAR-4
RPMI-8226 = test system: RPMI-8226
SK-OV-3 = test system: SK-OV-3
SR = test system: SR
SW-620 = test system: SW-620
UACC-62 = test system: UACC-62
UO-31 = test system: UO-31
DU-145 = test system: DU-145
MCF7 = test system: MCF7
T47D = test system: T47D

Measured: GI50

COc1ccc(C2C(Cl)C(=O)N2n2cnc3ccccc3c2=O)cc1OC (stereo not given)
inactive: 786-0 > 100 µM | ACHN > 100 µM | CCRF-CEM > 10 µM | HL-60 57.7 µM | HT-29 > 100 µM | KM12 > 100 µM | Malme-3M > 100 µM | NCI-H522 57.9 µM | OVCAR-3 44.6 µM | OVCAR-4 > 100 µM | RPMI-8226 81.1 µM | SK-OV-3 76.4 µM | SR 38.7 µM | SW-620 > 100 µM | UACC-62 74.1 µM | UO-31 22.3 µM

CNC(=O)CN(CC(=O)O)C(=O)NC
inactive: 786-0 > 100 µM | ACHN > 100 µM | CCRF-CEM > 100 µM | HL-60 > 100 µM | HT-29 > 100 µM | KM12 > 100 µM | Malme-3M > 100 µM | NCI-H522 > 100 µM | OVCAR-3 > 100 µM | OVCAR-4 > 100 µM | RPMI-8226 > 100 µM | SK-OV-3 > 100 µM | SR > 100 µM | SW-620 > 100 µM | UACC-62 > 100 µM | UO-31 > 100 µM

C#CC1/C(=C\C(=O)OC)CCCC1O (stereo not given)
inactive: 786-0 > 100 µM | ACHN > 100 µM | CCRF-CEM > 100 µM | HL-60 > 100 µM | HT-29 > 100 µM | KM12 > 100 µM | Malme-3M > 100 µM | NCI-H522 > 100 µM | OVCAR-3 > 100 µM | OVCAR-4 > 100 µM | RPMI-8226 > 100 µM | SK-OV-3 > 100 µM | SR > 100 µM | SW-620 > 100 µM | UACC-62 > 100 µM | UO-31 > 100 µM

C(=C\C(SCc1ccccc1)SCc1ccccc1)/c1ccccc1
inactive: 786-0 > 10 µM | ACHN > 10 µM | CCRF-CEM > 10 µM | DU-145 > 10 µM | HL-60 > 10 µM | HT-29 > 10 µM | KM12 > 10 µM | MCF7 > 10 µM | Malme-3M > 10 µM | NCI-H522 > 10 µM | OVCAR-3 > 10 µM | OVCAR-4 > 10 µM | RPMI-8226 > 10 µM | SK-OV-3 > 10 µM | SR > 10 µM | SW-620 > 10 µM | T47D > 10 µM | UACC-62 > 10 µM | UO-31 > 10 µM

CC(C)/C(Cl)=N\OC(NC(=O)P(=O)(c1ccccc1)c1ccccc1)(C(F)(F)F)C(F)(F)F
inactive: 786-0 10.3 µM | ACHN 3.62 µM | CCRF-CEM 5.01 µM | DU-145 11.1 µM | HL-60 11.5 µM | HT-29 16.1 µM | KM12 7.26 µM | MCF7 13.3 µM | Malme-3M 7.52 µM | OVCAR-3 4.97 µM | OVCAR-4 5 µM | RPMI-8226 10.3 µM | SK-OV-3 27 µM | SR 14.7 µM | SW-620 21.7 µM | T47D 10.9 µM | UACC-62 16 µM | UO-31 7.05 µM

O=NNc1cnc(O)nc1O
inactive: 786-0 > 100 µM | ACHN > 100 µM | CCRF-CEM > 100 µM | DU-145 > 100 µM | HL-60 49.3 µM | KM12 > 100 µM | MCF7 > 100 µM | Malme-3M > 100 µM | NCI-H522 > 100 µM | OVCAR-3 74.8 µM | OVCAR-4 > 100 µM | RPMI-8226 > 100 µM | SK-OV-3 > 100 µM | SW-620 > 100 µM | T47D > 100 µM | UACC-62 71.3 µM | UO-31 > 100 µM

CCOP(=O)(OCC)C(c1ccccc1)N(C(=O)NC(F)(F)F)c1cccc(F)c1 (stereo not given)
inactive: 786-0 > 100 µM | ACHN > 100 µM | CCRF-CEM > 100 µM | DU-145 > 100 µM | HL-60 > 100 µM | HT-29 > 100 µM | KM12 > 100 µM | MCF7 > 100 µM | Malme-3M > 100 µM | NCI-H522 > 100 µM | OVCAR-3 > 100 µM | RPMI-8226 83.2 µM | SR > 100 µM | SW-620 > 100 µM | UO-31 58.6 µM

N/N=C1/CCCc2nonc21
inactive: 786-0 > 100 µM | ACHN > 100 µM | CCRF-CEM > 100 µM | DU-145 > 100 µM | HL-60 > 100 µM | HT-29 > 100 µM | KM12 > 100 µM | MCF7 > 100 µM | Malme-3M > 100 µM | OVCAR-3 > 100 µM | OVCAR-4 > 100 µM | RPMI-8226 > 100 µM | SK-OV-3 > 100 µM | SR > 100 µM | SW-620 > 100 µM | T47D > 100 µM | UACC-62 > 100 µM

Cc1cn(C2CC(N(O)C(N)=O)C(CO)O2)c(=O)[nH]c1=O (stereo not given)
inactive: 786-0 > 100 µM | ACHN > 100 µM | DU-145 > 100 µM | HT-29 > 100 µM | KM12 > 100 µM | MCF7 > 100 µM | Malme-3M > 100 µM | NCI-H522 > 100 µM | OVCAR-3 > 100 µM | OVCAR-4 > 100 µM | RPMI-8226 > 100 µM | SK-OV-3 > 100 µM | SW-620 > 100 µM | T47D > 100 µM | UACC-62 > 100 µM | UO-31 > 100 µM

COc1cc(OC)c2c(=O)c3c([N+](=O)[O-])cccc3n(C)c2c1
inactive: 786-0 > 100 µM | ACHN > 100 µM | CCRF-CEM > 100 µM | HL-60 > 100 µM | HT-29 > 100 µM | KM12 > 100 µM | Malme-3M > 100 µM | NCI-H522 > 100 µM | OVCAR-3 > 100 µM | OVCAR-4 > 100 µM | RPMI-8226 > 100 µM | SK-OV-3 > 100 µM | SR > 100 µM | SW-620 > 100 µM | UACC-62 > 100 µM | UO-31 > 100 µM

CC1=C(C(=O)NCc2ccccc2)C(c2ccccc2O)C(C(=O)NCc2ccccc2)=C(C)N1
inactive: 786-0 19.3 µM | ACHN 16.4 µM | CCRF-CEM 26.5 µM | HL-60 17.3 µM | HT-29 19.5 µM | KM12 16.6 µM | Malme-3M 15.7 µM | NCI-H522 16.5 µM | OVCAR-3 17.4 µM | OVCAR-4 17 µM | RPMI-8226 29.6 µM | SK-OV-3 26.1 µM | SR 28.9 µM | SW-620 17.7 µM | UACC-62 16.1 µM | UO-31 16.7 µM

COC(=O)C(/C(=N\O)C(=O)Nc1ccc(Br)cc1)c1nc2ccccc2nc1O (stereo not given)
inactive: 786-0 31 µM | ACHN 49.2 µM | CCRF-CEM 25.3 µM | HL-60 21.8 µM | HT-29 57.1 µM | KM12 > 100 µM | Malme-3M 45.1 µM | NCI-H522 17.1 µM | OVCAR-3 23.1 µM | OVCAR-4 64.7 µM | RPMI-8226 26.9 µM | SK-OV-3 > 100 µM | SR 18.2 µM | UACC-62 26.9 µM | UO-31 > 100 µM

C/C(=C\CNc1nc(Cl)nc2[nH]cnc12)CO
inactive: 786-0 > 100 µM | ACHN > 100 µM | CCRF-CEM > 100 µM | DU-145 > 100 µM | HL-60 > 100 µM | HT-29 > 100 µM | KM12 > 100 µM | MCF7 > 100 µM | Malme-3M > 100 µM | NCI-H522 > 100 µM | OVCAR-3 > 100 µM | OVCAR-4 > 100 µM | RPMI-8226 > 100 µM | SK-OV-3 > 100 µM | SR > 100 µM | SW-620 > 100 µM | T47D > 100 µM | UACC-62 > 100 µM | UO-31 > 100 µM

O=S(=O)(/N=c1\[nH]c(-c2cc(O)c(O)c(O)c2)cs1)c1ccc(Cl)cc1Cl
inactive: 786-0 19.7 µM | ACHN 14.6 µM | CCRF-CEM 19.9 µM | DU-145 20.3 µM | HL-60 41.8 µM | HT-29 22.8 µM | KM12 15.2 µM | MCF7 17.6 µM | Malme-3M 21.8 µM | NCI-H522 17.9 µM | OVCAR-3 17.4 µM | OVCAR-4 22.1 µM | RPMI-8226 19.4 µM | SK-OV-3 72.6 µM | SW-620 18.5 µM | T47D 15.3 µM | UACC-62 > 100 µM | UO-31 20.4 µM

COc1cc(OC2OC(CO)C(O)C(O)C2O)c2c(c1)O[C@@H]1[C@H](O)Oc3cc(OC)c(OC)cc3[C@]1(O)C2=O (stereo not given in full)
inactive: 786-0 > 25 µM | ACHN > 25 µM | CCRF-CEM > 25 µM | DU-145 > 25 µM | HL-60 > 25 µM | HT-29 > 25 µM | KM12 > 25 µM | MCF7 > 25 µM | NCI-H522 > 25 µM | OVCAR-3 > 25 µM | OVCAR-4 > 25 µM | RPMI-8226 > 25 µM | SK-OV-3 > 25 µM | SR > 25 µM | SW-620 > 25 µM | T47D > 25 µM | UACC-62 > 25 µM | UO-31 > 25 µM

O=C(/C=C/c1ccc(O)c(O)c1O)OCCc1ccccc1
inactive: 786-0 16 µM | ACHN 39.2 µM | DU-145 > 100 µM | HL-60 22 µM | HT-29 22.7 µM | KM12 28.9 µM | MCF7 14.5 µM | Malme-3M > 100 µM | NCI-H522 27.9 µM | OVCAR-3 21.6 µM | OVCAR-4 15.9 µM | RPMI-8226 21.2 µM | SK-OV-3 90.8 µM | SR 15.8 µM | SW-620 20.9 µM | T47D 82.2 µM | UACC-62 34 µM | UO-31 38.7 µM
